Assay results as given in US20200361895A1, “NOVEL SULFONAMIDE CARBOXAMIDE COMPOUNDS” (Inflazome Limited, priority 2017, published 2020).
Counter-ions that a name gives are not always drawn. Like-named read-outs stand apart in the source and are kept apart here.

What was measured:
[1] = PK protocol, intravenous administration; type: in vivo, male Sprague Dawley rats; details: male, Sprague Dawley, plasma, rat; for Vd: read-out: Vdss
Procedure: (§1) Pharmacokinetic parameters were determined in male Sprague Dawley rats (Charles River, UK, 250-350 g; or Vital River Laboratory Animal Technology Co Ltd, Beijing, China, 7-9 weeks old). Animals were individually housed during the study and maintained under a 12 h light/dark cycle. Animals had free access to food and water.
(§2) For intravenous administration, compounds were formulated as a solution in water or DMSO:PBS [10:90] in 2 mL/kg dosing volume and administered via tail vein. For oral administration, compounds were formulated as a solution in DMSO:water [10:90] in 5 mL/kg dosing volume and administered orally.
(§3) Serial blood samples (about 120-300 μL) were taken from each animal at each of 8 time-points post dose (0.083, 0.25, 0.5, 1, 2, 4, 8 and 24 h) or at each of 12 time-points post dose (0.03, 0.1, 0.17, 0.25, 0.5, 1, 2, 4, 6, 8, 12 and 24 h) or pre-dose and at each of 9 time-points post dose (0.25, 0.5, 1, 2, 4, 6, 8, 12 and 24 h). Samples were held on ice for no longer than 30 minutes before centrifugation (10,000 rpm (8,385 g) for 3 minutes; or 5,696 rpm (3,000 g) for 15 minutes) for plasma generation. Plasma was frozen on dry ice prior to bioanalysis. PK parameters were generated from LC-MS/MS data using Dotmatics or Phoenix WinNonlin 6.3 software.

[2] = target: T1, NLRP3 (Homo sapiens, UniProt Q96P20); experiment: THP-1 cells pyroptosis assay (LPS + nigericin, resazurin readout; THP IC50); type: cell-based; parameters: Seed THP-1 cells (25,000 cells/well) containing 1.0 μg/ml LPS in 40 μl of RPMI medium; host or cells: THP-1 cells
T1 sequence (Q96P20 whole entry): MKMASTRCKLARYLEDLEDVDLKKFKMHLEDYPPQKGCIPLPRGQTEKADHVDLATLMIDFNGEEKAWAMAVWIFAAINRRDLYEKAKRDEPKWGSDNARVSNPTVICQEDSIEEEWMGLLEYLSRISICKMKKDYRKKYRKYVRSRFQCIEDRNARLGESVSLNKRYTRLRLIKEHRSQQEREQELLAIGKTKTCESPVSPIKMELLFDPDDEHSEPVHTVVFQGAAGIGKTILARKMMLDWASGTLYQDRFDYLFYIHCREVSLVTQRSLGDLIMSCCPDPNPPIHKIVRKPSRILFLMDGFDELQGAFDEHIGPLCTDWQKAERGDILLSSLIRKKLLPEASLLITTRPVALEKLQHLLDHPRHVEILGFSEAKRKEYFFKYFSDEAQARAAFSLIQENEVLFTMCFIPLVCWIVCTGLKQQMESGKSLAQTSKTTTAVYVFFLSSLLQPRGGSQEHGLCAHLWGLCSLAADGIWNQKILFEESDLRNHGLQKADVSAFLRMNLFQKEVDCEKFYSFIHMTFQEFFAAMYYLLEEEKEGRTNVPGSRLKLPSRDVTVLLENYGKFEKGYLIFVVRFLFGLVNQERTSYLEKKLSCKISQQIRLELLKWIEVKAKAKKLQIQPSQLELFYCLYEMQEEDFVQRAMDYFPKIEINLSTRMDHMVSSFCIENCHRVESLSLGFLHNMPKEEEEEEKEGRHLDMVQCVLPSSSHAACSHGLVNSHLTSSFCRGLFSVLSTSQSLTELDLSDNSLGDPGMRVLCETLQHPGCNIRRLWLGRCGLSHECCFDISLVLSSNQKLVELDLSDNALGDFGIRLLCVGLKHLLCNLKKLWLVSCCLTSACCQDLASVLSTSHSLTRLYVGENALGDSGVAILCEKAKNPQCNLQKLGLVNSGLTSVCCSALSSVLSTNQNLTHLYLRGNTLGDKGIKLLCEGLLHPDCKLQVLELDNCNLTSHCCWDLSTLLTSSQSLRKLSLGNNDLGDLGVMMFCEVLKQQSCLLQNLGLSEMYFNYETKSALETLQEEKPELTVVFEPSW
Method in brief: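 Human THP-1 cells, 25,000/well in serum-free RPMI with 1 μg/ml LPS, treated 3 hrs at 37° C with compound (8-point half-log, 10 μM top, 0.1% DMSO), then 5 μM nigericin 1 hr. Viability by 100 μM resazurin fluorescence after 1-2 hrs; IC50 by 4-parameter fit.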

[3] = target: T1, NLRP3; experiment: Human whole blood IL1β release assay (LPS + nigericin, AlphaLisa IL-1β; HWB IC50); type: cell-based; parameters: Human whole blood in Li-heparin tubes was obtained from healthy donors from a volunteer donor panel; from tissue; host or cells: human whole blood from healthy donors; details: IL-1β release
Method in brief: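 Donor Li-heparin whole blood primed with 1 μg/ml LPS, given compound (8-point half-log series, 10 μM top; DMSO 0.1% final) for 3 h at 37 °C, then nigericin 10 μM final for 1 h. Supernatant IL-1β measured by AlphaLisa; IC50 from 4-parameter variable-slope fit.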

[4] = PK protocol, oral administration; type: in vivo; details: rat, male Sprague Dawley rats, 3 mg/kg, solution in DMSO:water [10:90], plasma
Procedure: as §1, §2, §3

Compound | AUC ([1]; dose 1 mg/kg) | clearance ([1]; dose 1 mg/kg) | half-life ([1]; dose 1 mg/kg) | Vd ([1]; dose 1 mg/kg) | IC50 [2] | IC50 [3] | AUC ([1]; dose 1.69 mg/kg) | clearance ([1]; dose 1.69 mg/kg) | half-life ([1]; dose 1.69 mg/kg) | Vd ([1]; dose 1.69 mg/kg) | AUC ([1]; dose 1.7 mg/kg) | clearance ([1]; dose 1.7 mg/kg) | half-life ([1]; dose 1.7 mg/kg) | Vd ([1]; dose 1.7 mg/kg) | AUC [4] | CL/F [4] | Cmax [4] | Tmax [4] | half-life [4] | bioavailability [4]
CC(C)c1cc(F)cc(-c2cccnc2)c1NC(=O)NS(=O)(=O)c1ccn(C[C@@H](C)O)n1 [Example 60, (R)-N-((4-Fluoro-2-isopropyl-6-(pyridin-3-yl)phenyl)carbamoyl)-1-(2-hydroxypropyl)-1H-pyrazole-3-sulfonamide] | 300 ng·h/mL | 56.3 mL/min/kg | 1 h | 1.22 L/kg | ≤ 500 nM | ≤ 500 nM |  |  |  |  |  |  |  |  |  |  |  |  |  | 
COc1cc(-c2ccc3c(c2NC(=O)NS(=O)(=O)c2ccn(CCN(C)C)n2)CCC3)ccn1 [Example 61, 1-(2-(Dimethylamino)ethyl)-N-((5-(2-methoxypyridin-4-yl)-2,3-dihydro-1H-inden-4-yl)carbamoyl)-1H-pyrazole-3-sulfonamide] |  |  |  |  | ≤ 500 nM | ≤ 500 nM | 1140 ng·h/mL | 24.6 mL/min/kg | 1.2 h | 0.6 L/kg |  |  |  |  |  |  |  |  |  | 
CCn1nc(S(=O)(=O)NC(=O)Nc2c(-c3ccnc(OC)c3)ccc3c2CCC3)cc1CN(C)C [Example 64, 5-((Dimethylamino)methyl)-1-ethyl-N-((5-(2-methoxypyridin-4-yl)-2,3-dihydro-1H-inden-4-yl)carbamoyl)-1H-pyrazole-3-sulfonamide] |  |  |  |  | ≤ 500 nM | ≤ 500 nM |  |  |  |  | 2710 ng·h/mL | 10.5 mL/min/kg | 3.8 h | 1.23 L/kg |  |  |  |  |  | 
COc1cc(-c2ccc3c(c2NC(=O)NS(=O)(=O)c2ccn(C(C)(C)CN(C)C)n2)CCC3)ccn1 [Example 69, 1-(1-(Dimethylamino)-2-methylpropan-2-yl)-N-((5-(2-methoxypyridin-4-yl)-2,3-dihydro-1H-inden-4-yl)carbamoyl)-1H-pyrazole-3-sulfonamide] | 896 ng·h/mL | 19 mL/min/kg | 5.8 h | 0.78 L/kg | ≤ 500 nM | ≤ 500 nM |  |  |  |  |  |  |  |  | 504 ng·h/mL | 112 mL/min/kg | 113 ng/mL | 0.5 h | 5 h | 19%
COc1cc(-c2ccc3c(c2NC(=O)NS(=O)(=O)N(C)C2CCN(C)C2)CCC3)ccn1 (stereo not drawn) [Example 122, 3-(N-Methyl-N-(1-methylpyrrolidin-3-yl)sulfamoyl)-1-(5-(2-methoxypyridin-4-yl)-2,3-dihydro-1H-inden-4-yl)urea] | 1320 ng·h/mL | 12.6 mL/min/kg | 11.1 h | 8.69 L/kg | ≤ 500 nM | ≤ 500 nM |  |  |  |  |  |  |  |  |  |  |  |  |  | 
CC(C)n1ccc(S(=O)(=O)NC(=O)Nc2c(-c3ccncc3)cc(F)c3c2CCC3)n1 [Example 205, N-((7-Fluoro-5-(pyridin-4-yl)-2,3-dihydro-1H-inden-4-yl)carbamoyl)-1-isopropyl-1H-pyrazole-3-sulfonamide] | 4870 ng·h/mL | 3.4 mL/min/kg | 2.6 h | 0.57 L/kg | ≤ 500 nM | ≤ 500 nM |  |  |  |  |  |  |  |  |  |  |  |  |  | 

The remaining lines, values ahead:

AUC ([1]; dose 1 mg/kg) | clearance ([1]; dose 1 mg/kg) | half-life ([1]; dose 1 mg/kg) | Vd ([1]; dose 1 mg/kg) | IC50 [2] | IC50 [3] | AUC ([1]; dose 1.69 mg/kg) | clearance ([1]; dose 1.69 mg/kg) | half-life ([1]; dose 1.69 mg/kg) | Vd ([1]; dose 1.69 mg/kg) | AUC ([1]; dose 1.7 mg/kg) | clearance ([1]; dose 1.7 mg/kg) | half-life ([1]; dose 1.7 mg/kg) | Vd ([1]; dose 1.7 mg/kg) | AUC [4] | CL/F [4] | Cmax [4] | Tmax [4] | half-life [4] | bioavailability [4] | Compound
65400 ng·h/mL | 0.39 mL/min/kg | 15 h | 0.36 L/kg | ≤ 500 nM | ≤ 500 nM |  |  |  |  |  |  |  |  | 136000 ng·h/mL | 0.48 mL/min/kg | 7220 ng/mL | 0.75 h | 12 h | 83% | COc1cc(-c2ccc3c(c2NC(=O)NS(=O)(=O)c2ccn(C4CC4)n2)CCC3)ccn1 [Example 221, 1-Cyclopropyl-N-((5-(2-methoxypyridin-4-yl)-2,3-dihydro-1H-inden-4-yl)carbamoyl)-1H-pyrazole-3-sulfonamide, sodium salt]
1740 ng·h/mL | 9.6 mL/min/kg | 0.9 h | 0.31 L/kg | ≤ 500 nM | ≤ 500 nM |  |  |  |  |  |  |  |  |  |  |  |  |  |  | CC(C)n1ccc(S(=O)(=O)NC(=O)Nc2c(-c3ccnnc3)ccc3c2CCC3)n1 [Example 223, 1-Isopropyl-N-((5-(Pyridazin-4-yl)-2,3-dihydro-1H-inden-4-yl)carbamoyl)-1H-pyrazole-3-sulfonamide, sodium salt]
6480 ng·h/mL | 2.6 mL/min/kg | 3.2 h | 0.47 L/kg | ≤ 500 nM | ≤ 500 nM |  |  |  |  |  |  |  |  |  |  |  |  |  |  | COc1cc(-c2ccc3c(c2NC(=O)NS(=O)(=O)c2ccn(C(C)C)n2)CCO3)ccn1 [Example 224, 1-Isopropyl-N-((5-(2-methoxypyridin-4-yl)-2,3-dihydrobenzofuran-4-yl)carbamoyl)-1H-pyrazole-3-sulfonamide, sodium salt]
1950 ng·h/mL | 8.5 mL/min/kg | 1.3 h | 0.24 L/kg | ≤ 500 nM | ≤ 500 nM |  |  |  |  |  |  |  |  |  |  |  |  |  |  | CC(C)n1cc(S(=O)(=O)NC(=O)Nc2c(-c3ccnc(C#N)c3)ccc3c2CCC3)nn1 [Example 230, N-((5-(2-Cyanopyridin-4-yl)-2,3-dihydro-1H-inden-4-yl)carbamoyl)-1-isopropyl-1H-1,2,3-triazole-4-sulfonamide, sodium salt]
1260 ng·h/mL | 13.3 mL/min/kg | 2.9 h | 2.12 L/kg | ≤ 500 nM | ≤ 500 nM |  |  |  |  |  |  |  |  |  |  |  |  |  |  | COc1cc(-c2ccc3c(c2NC(=O)NS(=O)(=O)c2ccc(CN(C)C)cc2)CCC3)ccn1 [Example 251, 4-((Dimethylamino)methyl)-N-((5-(2-methoxypyridin-4-yl)-2,3-dihydro-1H-inden-4-yl)carbamoyl)benzenesulfonamide, sodium salt]
